The source of these data is ChEMBL document CHEMBL5331110, “Eyes on Topical Ocular Disposition: The Considered Design of a Lead Janus Kinase (JAK) Inhibitor That Utilizes a Unique Azetidin-3-Amino Bridging Scaffold to Attenuate Off-Target Kinase Activity, While Driving Potency and Aqueous Solubility” (J Med Chem, 2023).

Each structure is given as a SMILES string. ≈ marks a conversion by molar mass, not a printed value.

The term IC50 denotes the concentration needed to halve the response being measured. As usually defined, the solubility is how much of the substance goes into solution per volume. A higher solubility goes with a readily soluble substance. One may read the pKa as the negative logarithm of the acid dissociation constant.

The target of data set [1] is Tyrosine-protein kinase JAK2 (Homo sapiens, UniProt O60674).
Description: Inhibition of JAK2 (unknown origin) incubated for 45 to 120 mins in presence of ATP by Kinase-Glo luminescent assay
Data set [2] deals with Vascular endothelial growth factor receptor 2 (Homo sapiens, UniProt P35968).
Description: Inhibition of KDR (unknown origin) incubated for 45 to 120 mins in presence of ATP by Kinase-Glo luminescent assay
In another data set the target is Aurora kinase B (Homo sapiens, UniProt Q96GD4).
Data set [3] concerns the target Glycogen synthase kinase-3 beta (Homo sapiens, UniProt P49841).
Description: Inhibition of GSK3B (unknown origin) incubated for 45 to 120 mins in presence of ATP by Kinase-Glo luminescent assay
In data set [4] the target is Non-receptor tyrosine-protein kinase TYK2 (Homo sapiens, UniProt P29597).
Description: Inhibition of TYK2 (unknown origin) incubated for 45 to 120 mins in presence of ATP by Kinase-Glo luminescent assay
Data set [5] deals with Tyrosine-protein kinase JAK1 (Homo sapiens, UniProt P23458). Briefly: Inhibition of JAK1 (unknown origin) incubated for 45 to 120 mins in presence of ATP by Kinase-Glo luminescent assay. For orientation: Kinase-Glo reads ATP consumption through a luciferase reaction.
Data set [6] in a line: Intrinsic aqueous solubility of the compound in citrate buffer at pH 6 by HPLC-UV/MS analysis.
Data set [7] addresses T1, Tyrosine-protein kinase JAK3 (Homo sapiens, UniProt P52333).
T1 sequence (P52333 whole entry): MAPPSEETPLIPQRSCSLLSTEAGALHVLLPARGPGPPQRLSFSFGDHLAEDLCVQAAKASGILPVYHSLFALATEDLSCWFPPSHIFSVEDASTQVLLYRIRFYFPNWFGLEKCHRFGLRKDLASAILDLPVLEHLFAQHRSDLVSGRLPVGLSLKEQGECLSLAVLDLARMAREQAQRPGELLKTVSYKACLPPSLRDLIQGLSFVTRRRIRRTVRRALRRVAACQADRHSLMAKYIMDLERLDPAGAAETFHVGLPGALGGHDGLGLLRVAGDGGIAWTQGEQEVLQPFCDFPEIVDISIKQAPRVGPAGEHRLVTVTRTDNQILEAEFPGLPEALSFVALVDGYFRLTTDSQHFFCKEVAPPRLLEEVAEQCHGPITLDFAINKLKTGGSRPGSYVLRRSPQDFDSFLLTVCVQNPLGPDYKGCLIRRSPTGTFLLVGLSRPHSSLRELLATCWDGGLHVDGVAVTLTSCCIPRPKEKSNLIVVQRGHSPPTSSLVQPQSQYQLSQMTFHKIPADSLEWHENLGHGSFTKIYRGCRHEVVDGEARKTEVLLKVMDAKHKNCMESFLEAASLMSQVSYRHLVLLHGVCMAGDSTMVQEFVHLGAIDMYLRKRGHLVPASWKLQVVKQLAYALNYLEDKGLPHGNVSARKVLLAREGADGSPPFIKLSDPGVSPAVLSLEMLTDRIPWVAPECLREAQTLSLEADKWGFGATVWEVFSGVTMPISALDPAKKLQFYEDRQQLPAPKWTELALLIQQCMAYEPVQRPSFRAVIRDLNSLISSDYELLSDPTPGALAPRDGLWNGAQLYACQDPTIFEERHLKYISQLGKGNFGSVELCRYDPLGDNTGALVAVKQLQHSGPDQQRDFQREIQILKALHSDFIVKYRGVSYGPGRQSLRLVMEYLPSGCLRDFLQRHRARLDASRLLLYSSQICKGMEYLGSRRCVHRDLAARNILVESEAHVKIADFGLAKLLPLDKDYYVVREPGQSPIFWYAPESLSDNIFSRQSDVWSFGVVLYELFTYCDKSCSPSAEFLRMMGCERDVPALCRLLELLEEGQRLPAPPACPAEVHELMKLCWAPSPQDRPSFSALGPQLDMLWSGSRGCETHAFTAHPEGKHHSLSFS
Description: Inhibition of JAK3 (unknown origin) incubated for 45 to 120 mins in presence of ATP by Kinase-Glo luminescent assay

The target of data set [8] is Tyrosine-protein kinase ABL1 (Homo sapiens, UniProt P00519).
Description: Inhibition of ABL1 (unknown origin) incubated for 45 to 120 mins in presence of ATP by Kinase-Glo luminescent assay
Data set [9] is described as follows: Dissociation constant, pKa of the compound by potentiometric titration method.

Tyrosine-protein kinase ABL1, sequence (P00519 whole entry): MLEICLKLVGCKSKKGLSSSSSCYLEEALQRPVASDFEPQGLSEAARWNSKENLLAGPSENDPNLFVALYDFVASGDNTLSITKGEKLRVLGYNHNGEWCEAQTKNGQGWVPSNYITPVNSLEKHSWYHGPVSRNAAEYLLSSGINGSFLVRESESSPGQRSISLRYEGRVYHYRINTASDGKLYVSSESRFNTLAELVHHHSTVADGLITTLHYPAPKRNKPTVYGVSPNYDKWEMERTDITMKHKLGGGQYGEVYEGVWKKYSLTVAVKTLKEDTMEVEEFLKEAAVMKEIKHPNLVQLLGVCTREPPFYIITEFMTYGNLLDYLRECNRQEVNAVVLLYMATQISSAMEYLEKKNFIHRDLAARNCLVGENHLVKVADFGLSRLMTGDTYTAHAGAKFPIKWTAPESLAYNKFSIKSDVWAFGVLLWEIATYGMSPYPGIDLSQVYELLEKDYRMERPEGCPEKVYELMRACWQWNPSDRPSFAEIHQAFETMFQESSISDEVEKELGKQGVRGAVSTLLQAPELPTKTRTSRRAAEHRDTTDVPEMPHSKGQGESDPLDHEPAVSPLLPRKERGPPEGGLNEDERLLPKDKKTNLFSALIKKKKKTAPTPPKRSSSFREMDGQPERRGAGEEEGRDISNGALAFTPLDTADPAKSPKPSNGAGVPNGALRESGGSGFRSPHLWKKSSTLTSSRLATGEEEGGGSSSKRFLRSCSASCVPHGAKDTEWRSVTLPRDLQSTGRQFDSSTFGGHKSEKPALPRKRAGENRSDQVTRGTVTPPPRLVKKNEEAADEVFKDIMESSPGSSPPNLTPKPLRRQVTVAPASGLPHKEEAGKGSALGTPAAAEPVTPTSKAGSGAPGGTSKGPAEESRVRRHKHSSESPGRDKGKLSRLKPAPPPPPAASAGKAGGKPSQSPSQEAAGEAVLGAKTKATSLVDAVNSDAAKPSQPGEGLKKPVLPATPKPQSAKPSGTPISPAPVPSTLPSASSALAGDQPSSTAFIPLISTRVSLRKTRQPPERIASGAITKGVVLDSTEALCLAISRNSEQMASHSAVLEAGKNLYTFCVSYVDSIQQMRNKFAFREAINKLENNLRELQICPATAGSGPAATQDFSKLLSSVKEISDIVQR
Vascular endothelial growth factor receptor 2, sequence (P35968 whole entry): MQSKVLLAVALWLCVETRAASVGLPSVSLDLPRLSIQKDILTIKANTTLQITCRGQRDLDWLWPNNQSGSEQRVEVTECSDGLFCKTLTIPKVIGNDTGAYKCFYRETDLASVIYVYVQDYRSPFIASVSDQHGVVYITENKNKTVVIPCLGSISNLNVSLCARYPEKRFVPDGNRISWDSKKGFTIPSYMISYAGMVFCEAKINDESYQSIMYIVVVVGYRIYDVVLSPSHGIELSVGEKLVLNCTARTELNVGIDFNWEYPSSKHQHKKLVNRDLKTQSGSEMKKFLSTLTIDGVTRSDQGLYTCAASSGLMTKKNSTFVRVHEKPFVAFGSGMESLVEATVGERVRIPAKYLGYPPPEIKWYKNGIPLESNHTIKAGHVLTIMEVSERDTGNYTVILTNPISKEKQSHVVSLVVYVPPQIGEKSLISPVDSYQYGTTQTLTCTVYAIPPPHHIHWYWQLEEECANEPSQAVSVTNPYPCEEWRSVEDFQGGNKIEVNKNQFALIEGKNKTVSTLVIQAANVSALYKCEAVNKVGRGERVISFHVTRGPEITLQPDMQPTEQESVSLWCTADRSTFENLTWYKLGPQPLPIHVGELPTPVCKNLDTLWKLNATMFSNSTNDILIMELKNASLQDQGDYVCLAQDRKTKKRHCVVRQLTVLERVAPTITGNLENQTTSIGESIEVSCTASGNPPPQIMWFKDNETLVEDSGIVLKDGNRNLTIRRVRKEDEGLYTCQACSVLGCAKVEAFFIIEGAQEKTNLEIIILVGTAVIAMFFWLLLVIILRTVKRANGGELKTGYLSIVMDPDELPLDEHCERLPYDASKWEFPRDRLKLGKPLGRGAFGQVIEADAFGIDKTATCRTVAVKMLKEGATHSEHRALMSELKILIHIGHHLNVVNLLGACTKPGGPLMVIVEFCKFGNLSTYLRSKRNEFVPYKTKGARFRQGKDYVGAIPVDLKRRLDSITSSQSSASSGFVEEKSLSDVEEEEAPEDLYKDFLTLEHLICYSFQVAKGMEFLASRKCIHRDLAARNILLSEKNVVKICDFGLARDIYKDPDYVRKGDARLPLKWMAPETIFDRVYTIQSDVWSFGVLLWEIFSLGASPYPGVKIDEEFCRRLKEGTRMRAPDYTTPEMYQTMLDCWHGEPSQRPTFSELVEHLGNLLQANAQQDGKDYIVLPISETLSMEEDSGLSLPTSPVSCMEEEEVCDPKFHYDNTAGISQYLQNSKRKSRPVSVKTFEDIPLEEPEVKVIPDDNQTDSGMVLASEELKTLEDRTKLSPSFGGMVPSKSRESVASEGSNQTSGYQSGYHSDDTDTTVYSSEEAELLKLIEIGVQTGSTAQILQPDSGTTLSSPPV
Glycogen synthase kinase-3 beta, sequence (P49841 whole entry): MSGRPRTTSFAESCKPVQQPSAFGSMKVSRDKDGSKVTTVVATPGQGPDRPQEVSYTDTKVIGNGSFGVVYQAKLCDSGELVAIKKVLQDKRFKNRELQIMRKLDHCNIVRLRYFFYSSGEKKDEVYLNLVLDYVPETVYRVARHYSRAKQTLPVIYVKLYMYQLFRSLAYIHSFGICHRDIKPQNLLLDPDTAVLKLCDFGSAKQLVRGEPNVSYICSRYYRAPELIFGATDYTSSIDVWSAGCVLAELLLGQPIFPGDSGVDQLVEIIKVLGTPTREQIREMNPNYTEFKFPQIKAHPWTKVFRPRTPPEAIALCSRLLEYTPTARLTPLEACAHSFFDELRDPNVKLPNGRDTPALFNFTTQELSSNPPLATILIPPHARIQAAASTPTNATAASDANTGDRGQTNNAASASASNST
Tyrosine-protein kinase JAK2, sequence (O60674 whole entry): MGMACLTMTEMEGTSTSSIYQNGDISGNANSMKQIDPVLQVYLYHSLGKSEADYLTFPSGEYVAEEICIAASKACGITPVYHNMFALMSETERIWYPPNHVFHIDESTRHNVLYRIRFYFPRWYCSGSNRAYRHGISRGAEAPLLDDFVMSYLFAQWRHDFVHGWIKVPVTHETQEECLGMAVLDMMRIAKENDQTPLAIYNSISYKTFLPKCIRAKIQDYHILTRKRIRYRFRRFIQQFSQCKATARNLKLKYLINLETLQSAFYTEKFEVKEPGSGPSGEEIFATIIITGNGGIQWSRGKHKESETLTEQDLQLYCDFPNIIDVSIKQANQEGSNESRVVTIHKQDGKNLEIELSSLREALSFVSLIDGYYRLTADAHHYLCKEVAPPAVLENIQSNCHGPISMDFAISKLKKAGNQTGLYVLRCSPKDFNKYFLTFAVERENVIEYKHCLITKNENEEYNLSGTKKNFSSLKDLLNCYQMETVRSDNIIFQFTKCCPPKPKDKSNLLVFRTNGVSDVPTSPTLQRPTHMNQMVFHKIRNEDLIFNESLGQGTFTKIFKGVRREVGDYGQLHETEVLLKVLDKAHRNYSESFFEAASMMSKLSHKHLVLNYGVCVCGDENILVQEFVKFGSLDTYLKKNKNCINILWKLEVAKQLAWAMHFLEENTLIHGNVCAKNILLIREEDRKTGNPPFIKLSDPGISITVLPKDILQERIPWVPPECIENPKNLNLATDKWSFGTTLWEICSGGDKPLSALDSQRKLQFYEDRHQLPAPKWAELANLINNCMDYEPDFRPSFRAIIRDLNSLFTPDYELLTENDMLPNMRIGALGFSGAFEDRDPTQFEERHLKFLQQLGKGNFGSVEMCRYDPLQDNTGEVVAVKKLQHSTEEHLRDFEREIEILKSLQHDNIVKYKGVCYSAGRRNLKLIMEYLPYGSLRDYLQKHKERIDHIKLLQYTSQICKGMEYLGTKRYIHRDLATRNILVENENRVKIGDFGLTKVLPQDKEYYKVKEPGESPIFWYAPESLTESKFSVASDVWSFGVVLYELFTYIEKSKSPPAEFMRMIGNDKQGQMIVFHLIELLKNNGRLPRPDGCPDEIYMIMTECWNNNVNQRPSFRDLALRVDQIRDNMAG
Aurora kinase B, sequence (Q96GD4 whole entry): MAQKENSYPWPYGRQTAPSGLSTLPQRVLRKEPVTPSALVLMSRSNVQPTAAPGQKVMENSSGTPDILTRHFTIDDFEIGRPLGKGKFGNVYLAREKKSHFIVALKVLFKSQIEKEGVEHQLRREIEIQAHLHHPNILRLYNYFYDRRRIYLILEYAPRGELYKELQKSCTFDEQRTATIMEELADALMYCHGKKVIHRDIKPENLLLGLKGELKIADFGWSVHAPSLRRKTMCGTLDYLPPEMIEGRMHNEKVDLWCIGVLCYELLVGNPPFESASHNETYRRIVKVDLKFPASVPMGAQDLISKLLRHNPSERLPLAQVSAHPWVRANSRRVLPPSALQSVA
Description for Aurora kinase B: Inhibition of AURKB (unknown origin) incubated for 45 to 120 mins in presence of ATP by Kinase-Glo luminescent assay

Turning to `Cc1cc(Nc2ncc(C)c(N3CC4CCC(C3)N4CCC#N)n2)sn1`, the IC50 was found to be 0.98 nM in data set [1], 96 nM in data set [2], 1.5 nM on Aurora kinase B and 311 nM in data set [3].

For the compound `Cc1cc(Nc2ncc(Cl)c(-c3cnn(CCC#N)c3)n2)sn1`, the IC50 in data set [4] came to 1.5 nM; in [5], 3 nM.

In data set [6], `Cc1cnc(Nc2cnn(C)c2)nc1-c1cnn(CCC#N)c1` registered a solubility of 69 µM (≈ 21.3 µg/mL). In addition, the IC50 in data set [4] is 3.4 nM; in data set [5] it was 12 nM; in data set [7] it was 55 nM.

Consider `Cc1cnc(Nc2cnn(C)c2)nc1N1CC2CCCC(C1)N2CC#N`, for which the concentration for half-maximal inhibition (IC50) in data set [1] stood at 61 nM; in [2] it was 7390 nM; in data set [8], 16800 nM; on Aurora kinase B, 913 nM; in data set [3] it was 36400 nM. For the same compound, the solubility in [6] turned out to be 7090 µM (≈ 2500 µg/mL).

For `Cc1cnc(NC2CCOCC2)nc1-c1cnn(CCC#N)c1`, the IC50 in [1] is 41900 nM; in [4], 50000 nM; in data set [5], 50000 nM; in data set [7], 50000 nM. The solubility in data set [6] stood at 390 µM (≈ 122 µg/mL).

With `Cc1cnc(Nc2ccc(N3CCOCC3)cc2)nc1-c1cnn(CCC#N)c1`, the IC50 in data set [1] was 2 nM; in data set [4], 2 nM; in data set [5] it was 15 nM; in data set [7] it was 18 nM. The same compound gave a solubility in data set [6] of 13 µM (≈ 5.06 µg/mL). For the same compound, the pKa in [9] worked out at 4.2.

As to `Cc1cnc(Nc2cnn(C)c2)nc1N1CC(CC#N)(N2CCN(C)CC2)C1`, the 50% inhibitory concentration (IC50) in [1] worked out at 34 nM; in [8], 50000 nM; on Aurora kinase B, 764 nM.

For `Cc1cc(Nc2ncc(C)c(N3CCN(CC#N)[C@@H](C)C3)n2)sn1`, the concentration for half-maximal inhibition (IC50) came out at 1.5 nM in data set [1]; 30 nM in data set [2]; 228 nM in data set [8]; 22 nM on Aurora kinase B; 2200 nM in [3]. Moreover, the solubility in data set [6] was determined as 16 µM (≈ 5.5 µg/mL).

In the case of `Cc1cc(Nc2cc(-c3cnn(CCC#N)c3)c(Cl)cn2)sn1`, the half-maximal inhibitory concentration (IC50) in data set [4] and in [5] was 50000 nM each time.

In the case of `Cc1cc(Nc2ncc(C)c(N3CC4CCCC(C3)N4CC#N)n2)sn1`, the concentration for half-maximal inhibition (IC50) in [1] was 5.4 nM; in [2], 1580 nM; in [8] it was 2030 nM; on Aurora kinase B, 364 nM; in [3], 3240 nM. In data set [6], this compound yielded a solubility of 35 µM (≈ 12.9 µg/mL).

In the case of `Cc1cnc(Nc2cnn(C)c2)nc1N1CC2CCCC(C1)N2CCC#N`, the IC50 in data set [1] amounted to 3.4 nM; in data set [2], 936 nM; in data set [4] it was 3.4 nM; at Aurora kinase B, 19 nM; in data set [5] it was 2 nM; in [3], 9900 nM. In [7], this compound had a 50% inhibitory concentration (IC50) of 11 nM.

As for `Cc1cc(Nc2ncc(C)c(N3CCN(CC#N)CC3)n2)sn1`, the half-inhibitory concentration (IC50) in [1] was 3.4 nM; in data set [2], 41 nM; in data set [8], 467 nM; against Aurora kinase B, 1.5 nM; in [3], 1620 nM. Further, the solubility in data set [6] came to 7 µM (≈ 2.31 µg/mL).

Consider `Cc1cc(Nc2ncc(C)c(N3CC(CC#N)(N4CCCCC4)C3)n2)sn1`, for which the concentration for half-maximal inhibition (IC50) is 4.4 nM in data set [1] and 8430 nM in data set [8].

`Cn1cc(Nc2nccc(-c3cnn(CCC#N)c3)n2)cn1`: the half-inhibitory concentration (IC50) was 27 nM in [1], 49 nM in [4] and 538 nM in data set [5].

`Cc1cc(Nc2ncc(C)c(N3CC(CC#N)(N4CCCC4)C3)n2)sn1`: the midpoint of inhibition at Aurora kinase B, the IC50, lay at 22 nM.

In the case of `Cc1cnc(Nc2ccccc2)nc1-c1cnn(CCC#N)c1`, the IC50 in data set [1] came out at 6 nM; in [4], 11 nM; in data set [5], 50 nM; in data set [7] it was 143 nM. This compound gave a solubility in data set [6] of 52 µM (≈ 15.8 µg/mL).

For `Cc1cc(Nc2ncc(C)c(N3CC(C4CC4)C3)n2)sn1`, the half-inhibitory concentration (IC50) is 3.4 nM in data set [1] and 21 nM at Aurora kinase B.

In the case of `Cc1cc(Nc2ncc(C)c(N3CC(O)(C4CC4)C3)n2)sn1`, the concentration for half-maximal inhibition (IC50) is 2.5 nM in data set [1], 80 nM in data set [8] and 0.97 nM at Aurora kinase B.

For the compound `Cc1cc(Nc2ncc(C)c(N3CC(CC#N)(N4CCN(C)CC4)C3)n2)sn1`, the 50% inhibitory concentration (IC50) in data set [4] worked out at 2.9 nM; in data set [8], 21400 nM; on Aurora kinase B, 441 nM; in data set [7] it was 70 nM.

Regarding `Cc1cnc(NCCN2CCOCC2)nc1-c1cnn(CCC#N)c1`, the half-maximal inhibitory concentration (IC50) in data set [1] turned out to be 19500 nM; in [5], 50000 nM; in data set [7] it was 50000 nM.

On Aurora kinase B, `Cc1cc(Nc2ncc(C)c(N3CCC(CC#N)CC3)n2)sn1` yielded an IC50 of 1.1 nM.

For the compound `Cc1cc(Nc2ncc(C)c(N3CC4CCC(C3)N4CC#N)n2)sn1`, the half-inhibitory concentration (IC50) in [1] turned out to be 3.9 nM; in [2] it was 221 nM; in data set [8] it was 1310 nM; against Aurora kinase B it was 4 nM; in data set [3], 1680 nM. The compound also had a solubility in [6] of 11 µM (≈ 3.91 µg/mL).

In the case of `Cc1cnc(Nc2ccc(N3CCN(C)CC3)cc2)nc1-c1cnn(CCC#N)c1`, the IC50 in data set [1] is 2 nM; in data set [4], 2 nM; in data set [5] it was 13 nM; in data set [7] it was 16 nM. The amount in solution in data set [6] (solubility) came to 33500 µM (≈ 13500 µg/mL).

On to `Cc1cc(Nc2ncc(C)c(N3CC(CC#N)C3)n2)sn1`, for which the figures for the IC50 (in [1]; against Aurora kinase B) were 9 nM and 6 nM, respectively.

For the compound `Cc1cc(Nc2ncc(C)c(N3CC(CCC#N)C3)n2)sn1`, the IC50 came to 13 nM in [1], 568 nM in data set [8] and 3 nM against Aurora kinase B.

With `Cc1cnc(Nc2cnn(C)c2)nc1-c1cnn([C@H](CC#N)C2CCCC2)c1`, the IC50 was 0.98 nM in data set [1]; 0.98 nM in data set [4]; 351 nM in [8]; 7 nM against Aurora kinase B; 0.99 nM in data set [5]; 395 nM in data set [3]. This compound also registered an IC50 in data set [7] of 3.4 nM.

Consider `Cc1cc(Nc2ncc(C)c(N3CC4CCCC(C3)N4CCC#N)n2)sn1`, for which the concentration for half-maximal inhibition (IC50) was found to be 0.98 nM in data set [1]; 109 nM in data set [2]; 537 nM in [8]; 2.5 nM on Aurora kinase B; 565 nM in data set [3]. In data set [6], the solubility came to 11 µM (≈ 4.22 µg/mL).

Turning to `Cc1cc(Nc2ncc(C)c(N3CCN(CC#N)C(C)C3)n2)sn1` (stereo not given), the IC50 in data set [1] stood at 3 nM; in data set [2], 55 nM; in data set [8] it was 1240 nM; against Aurora kinase B, 3 nM; in data set [3] it was 1360 nM. In [6], this compound displayed a solubility of 19 µM (≈ 6.53 µg/mL).

Turning to `Cc1cc(Nc2ncc(C)c(-c3cnn(CCC#N)c3)n2)sn1`, the IC50 amounted to 2 nM in [1]; 1.5 nM in [4]; 207 nM in data set [8]; 2.5 nM against Aurora kinase B; 3 nM in data set [5]; 14 nM in data set [7].

Turning to `Cc1cc(Nc2ncc(C)c(N3CC(CC#N)(OC4CC5(CC5)C4)C3)n2)sn1`, the 50% inhibitory concentration (IC50) in data set [1] stood at 8 nM; in data set [8], 10300 nM; against Aurora kinase B, 187 nM.
